According to patent US20240385182A1, “MASKED FLUOROGENIC LIPID COMPOUNDS, LIPID PARTICLES COMPRISING THE SAME, AND METHODS OF USE THEREOF” (Rutgers, The State University of New Jersey, priority 2023, published 2024):

Experiments:
[1] = Photophysical characterization of probes and uncaged forms (relative fluorescence quantum yield, extinction coefficient, brightness); format: physicochemical; settings: for Relative Brightness: Table 3; for Brightness: in M⁻¹·cm⁻¹ (unit assumed)
Procedure: The pKa of TEG-TC was determined to be 7.1±0.1 using UV-Vis spectrophotometric measurements. Under the confocal imaging conditions (pH 7.5-8.5 with cell-free assays, pH 7.4 with cells), a substantial population of the 7-hydroxycoumarin should exist in its aryloxide form. The change in coumarin fluorogenicity was assessed upon uncaging the probes from the oxobutylphenyl carbonate by measuring the relative fluorescence quantum yield (ΦFrel) values (Table 2). Coumarin 343 was used as a standard, which has an absolute fluorescence quantum yield ([…]) of 0.63 in ethanol. The ΦFrel values of TEG-TC-ONOO^− (entry 1) and DPPC-TC-ONOO^− (entry 3) were measured as 0.08 and 0.09, respectively. […] The ΦFrel values for TEG-TC (entry 2) and DPPC-TC (entry 4), which were synthesized independently, were measured as 0.66 and 0.64, respectively.
Next, the impact of caging and uncaging of the coumarin or fluorescein moieties on their fluorogenicity was assessed by measuring the relative fluorescence quantum yield (ΦFrel) values (Table 3). Coumarin 343 was used as the standard for measuring ΦFrel of the triazole-coumarin compounds (TEG-TC-H2S, TEG-TC, DPPC-TC-H2S, and DPPC-TC) whereas fluorescein for the triazole-fluorescein compounds (TEG-TF-H2O2, TEG-TF, and DPPC-TF-H2O2, and DPPC-TF). Relative to coumarin 343, whose absolute fluorescence quantum yield (ΦF) is 0.63 in ethanol, ΦFrels of the H2S probes TEG-TC-H2S (entry 1) and DPPC-TC-H2S (entry 3) were determined to be 0.07 and 0.03, respectively.
The pKa of TEG-TC was previously found to be to be 7.1±0.1 using UV-Vis spectrophotometric measurements. Under the fluorescence activation assay conditions that are employed here (Tris 50 mM, pH 7.5), a substantial population of the coumarin moiety is expected to be in its aryloxide anion form. Relative to fluorescein, whose ΦF is 0.79 in ethanol, ΦFrel values of the H2O2 probes TEG-TF-H2O2 (entry 5) and DPPC-TF-H2O2 (entry 7) were determined to be 0.04 and 0.02, respectively.

[2] = Confocal imaging of H2S-sensing giant vesicles; settings: GVs with POPC, POPG, cholesterol; H2S (500 μM) over 1 hour
Source text: FIGS. 14A-14B: giant vesicles (GVs) that can sense reductive (FIG. 14A) or oxidative (FIG. 14B) environments. Confocal images acquired for H2S-sensing GV at 405/475 nm (ex/em) (FIG. 14A) and H2O2 sensing GV at 490/520 nm (ex/em) (FIG. 14B). Lipid compositions of GVs: POPC, POPG, cholesterol, and DPPC-TC-H2S (48:21:30:1 molar ratio; FIG. 14A); and POPC, POPG, cholesterol, and DPPC-TF-H2O2 (48.5:21:30:0.5; FIG. 14B). To label vesicle membranes, Liss-Rhod PE dye (563/580 nm) was introduced to the lipid mixture at an insignificant molar ratio (0.1 mol %). Concentrations of RSS and ROS were set to 500 and 100 μM, respectively. Scale bar=5 μm.
The redox sensing abilities of giant vesicles (GVs) comprising DPPC-TC-H2S or DPPC-TF-H2O2 were investigated. In most biomimetic systems that rely on compartmentalization, physical membrane boundaries are comprised of phospholipids and cholesterol. These lipid self-assemblies have dimensional properties (1-30 μm in diameter) relevant to those of a mammalian plasma membrane (10-100 μm), display physical characteristics feasible for confocal fluorescence imaging, and are conveniently utilized for bottom-up construction of biomimetic protocells. […]
The vesicle size distribution was analyzed by dynamic light scattering (DLS), confirming the presence of GVs. […]

[3] = Fluorescence activation and LoD of TEG-TF-H2O2 with H2O2 in Tris buffer
Procedure: FIGS. 13A-13D: specificity (FIGS. 13A-13B) and limit of detection (LoD) (FIGS. 13C-13D) of TEG-TC-H2S and TEG-TF-H2O2. LoD measurements for the probes TEG-TC-H2S (390/475 nm) and TEG-TF-H2O2 (485/525 nm) were performed in Tris buffer (50 mM, pH 7.5). Error bars represent the standard deviation; n=3. Single-tailed Student's t test: *, P<0.05; **, P<0.01; ***, P<0.001; ****, P<0.0001.
(§1) The redox-specificities of the non-amphiphilic probes, TEG-TC-H2S or TEG-TF-H2O2, were assessed by subjecting them to various RSS or ROS (FIGS. 13A-13B). Change in fluorescence intensity following excitation of each sample containing the respective probe was measured over 120 minutes of incubation and presented based on the signal-to-background ratio F/F0, where F and F0 are defined as the fluorescence with and without the redox species. The F/F0 of the untreated samples were set to 1 for comparisons. […] Samples containing TEG-TF-H2O2 and treated with 100 μM H2O2 presented a steady fluorescence enhancement within 2 hours, resulting in 4.4-fold higher fluorescence than those of the untreated samples (FIG. 13B).
(§2) The specificity of TEG-TC-H2S toward H2S was evaluated by comparing its reactivity against different RSS, cysteine (Cys), glutathione (GSH), sulfite (SO3^2−), and thiosulfate (S2O3^2−). At 1 mM initial concentration and a total incubation time of 2 hours, these sulfur species induced an increase in coumarin fluorescence by less than 25% compared to the untreated sample (FIG. 13A). […] The specificity of TEG-TF-H2O2 toward H2O2 was also assessed, by incubating the samples containing TEG-TF-H2O2 with 100 μM either hydroxyl radical (·OH), nitric oxide (NO), or superoxide radical (O2·^−) for 2 hours. Among these three reactive oxygen species, ·OH induced the highest fluorescence increase (2.2-fold), which was lower than that for H2O2 (4.4-fold). The relatively low yet observable reactivity of ·OH may have been due, in large part, to the residual unreacted H2O2 used for generating ·OH. […]

[4] = Specificity of TEG-TF-H2O2 against other ROS; settings: ·OH 100 μM, 2 hours
Procedure: as §1
as §2, with “hours.” for “hours. Among these three reactive oxygen species, ·OH induced the highest fluorescence increase (2.2-fold), which was lower than that for H2O2 (4.4-fold). The relatively low yet observable reactivity of ·OH may have been due, in large part, to the residual unreacted H2O2 used for generating ·OH.”

Compound | Emmax [1] | Exmax [1] | Ext. Coeff. [1] | Relative Brightness ([1]; brightness compared to that of DPPC-TC-H2S) | Brightness [1] | Quantum Yield (relative fluorescence quantum yield ΦFrel) ([1]; standard coumarin 343) | GV fluorescence [2] | Relative Brightness ([1]; brightness compared to that of DPPC-TF-H2O2) | Quantum Yield (relative fluorescence quantum yield ΦFrel) ([1]; standard fluorescein) | fluorescence compared to untreated samples ([3]; 100 μM H2O2, 2 hours, Tris pH 7.5) | LoD ([3]; minimum H2O2 concentration at which F is statistically higher than F0, 485/525 nm, Tris 50 mM pH 7.5) | fluorescence increase of the untreated sample compared to the fluorescence at 1 min (possible hydrolysis) ([3]; no redox species, pH 7.5, 120 minutes) | fluorescence increase [4]
CCCCCCCCCCCCCCCC(=O)OCC(COP(=O)([O-])OCC[N+](C)(C)Cc1cn(-c2cc3ccc(OCc4ccc(N=[N+]=[N-])cc4)cc3oc2=O)nn1)OC(=O)CCCCCCCCCCCCCCC (racemic) [DPPC-TC-H2S] | 473.5 nm | 396.5 nm | 24111 M⁻¹ cm⁻¹ | 1.0 | 72 | 0.03 | significant increase in fluorescence | – | – | – | – | – | –
CC1(C)OB(c2ccc(COC(=O)Oc3ccc4c(c3)Oc3cc(OC(=O)OCc5ccc(B6OC(C)(C)C(C)(C)O6)cc5)ccc3C43OC(=O)c4cc(-n5cc(COCCOCCOCCO)nn5)ccc43)cc2)OC1(C)C [TEG-TF-H2O2] | 526.0 nm | 492.0 nm | 13429 M⁻¹ cm⁻¹ | – | 537 | – | – | 2.5 | 0.04 | 4.4 fold | 10 µM | 277% | 2.2 fold
